# Experimental data reported in ChEMBL document CHEMBL3885861, “Open TG-GATES”.
# Species: Rattus norvegicus
# Assay: Open TG-GATES - Regimen: Single
# Assay type: toxicity, organism-based, Sprague-Dawley
# Parameters: regimen Single, gender Male, age 6 weeks
# Details: in vivo, po, 100 mg/kg, route gavage, dose level Middle; for APTT / Bas / Eos / Fbg / Hb / Ht / Lym / MCH / MCHC / MCV / Mono / Neu / PT / Plat / RBC / Ret / WBC: tissue Blood; for KIDNEY_L / KIDNEY_R / KIDNEY_TOTAL: tissue Kidney; for LIVER: tissue Liver
compound,measurement,setting,value
COc1cc([C@@H]2c3cc4c(cc3[C@@H](O[C@@H]3O[C@@H]5CO[C@@H](C)O[C@H]5[C@H](O)[C@H]3O)[C@H]3COC(=O)[C@H]23)OCO4)cc(OC)c1O [ETOPOSIDE],TERMINAL_BW,3 h,196.5 g
same,APTT,3 h,17 s
same,Bas,3 h,0%
same,Eos,3 h,1%
same,Fbg,3 h,184.4 mg/dL
same,Hb,3 h,13.6 g/dL
same,Ht,3 h,40.5%
same,Lym,3 h,78.6%
same,MCH,3 h,21.7 pg
same,MCHC,3 h,33.7%
same,MCV,3 h,64.4 fL
same,Mono,3 h,8.2%
same,Neu,3 h,12.2%
same,PT,3 h,12.3 s
same,Plat,3 h,118 x10_4/uL
same,RBC,3 h,628.4 x10_4/ul
same,Ret,3 h,9.8%
same,WBC,3 h,104.2 x10_2/uL
same,KIDNEY_L,3 h,0.9 g
same,KIDNEY_R,3 h,0.9 g
same,KIDNEY_TOTAL,3 h,1.8 g
same,LIVER,3 h,9.1 g
same,ALP,"3 h, tissue Plasma",1074.8 IU/L
same,ALT,"3 h, tissue Plasma",36 IU/L
same,AST,"3 h, tissue Plasma",69.4 IU/L
same,BUN,"3 h, tissue Plasma",13.8 mg/dL
same,CRE,"3 h, tissue Plasma",0.5 mg/dL
same,Ca,"3 h, tissue Plasma",10.6 mg/dL
same,Cl,"3 h, tissue Plasma",103.8 meq/L
same,DBIL,"3 h, tissue Plasma",0.026 mg/dL
same,GLC,"3 h, tissue Plasma",193 mg/dL
same,IP,"3 h, tissue Plasma",9.6 mg/dL
same,K,"3 h, tissue Plasma",4.3 meq/L
same,LDH,"3 h, tissue Plasma",111 IU/L
same,Na,"3 h, tissue Plasma",141.6 meq/L
same,PL,"3 h, tissue Plasma",137.2 mg/dL
same,RALB,"3 h, tissue Plasma",3.4 g/dL
same,TBIL,"3 h, tissue Plasma",0.3 mg/dL
same,TC,"3 h, tissue Plasma",78.6 mg/dL
same,TG,"3 h, tissue Plasma",45.4 mg/dL
same,TP,"3 h, tissue Plasma",5.2 g/dL
same,gamma-GTP,"3 h, tissue Plasma",1.4 IU/L
same,TERMINAL_BW,6 h,198.5 g
same,APTT,6 h,17.4 s
same,Bas,6 h,0%
same,Eos,6 h,1%
same,Fbg,6 h,198 mg/dL
same,Hb,6 h,13.6 g/dL
same,Ht,6 h,40.5%
same,Lym,6 h,76.6%
same,MCH,6 h,21.9 pg
same,MCHC,6 h,33.7%
same,MCV,6 h,65.1 fL
same,Mono,6 h,9.8%
same,Neu,6 h,13%
same,PT,6 h,11.9 s
same,Plat,6 h,110.3 x10_4/uL
same,RBC,6 h,622 x10_4/ul
same,Ret,6 h,10%
same,WBC,6 h,69.6 x10_2/uL
same,KIDNEY_L,6 h,0.9 g
same,KIDNEY_R,6 h,0.9 g
same,KIDNEY_TOTAL,6 h,1.9 g
same,LIVER,6 h,8.9 g
same,ALP,"6 h, tissue Plasma",933.8 IU/L
same,ALT,"6 h, tissue Plasma",29.4 IU/L
same,AST,"6 h, tissue Plasma",62.2 IU/L
same,BUN,"6 h, tissue Plasma",11.4 mg/dL
same,CRE,"6 h, tissue Plasma",0.6 mg/dL
same,Ca,"6 h, tissue Plasma",10.7 mg/dL
same,Cl,"6 h, tissue Plasma",105 meq/L
same,DBIL,"6 h, tissue Plasma",0.02 mg/dL
same,GLC,"6 h, tissue Plasma",196.2 mg/dL
same,IP,"6 h, tissue Plasma",10.5 mg/dL
same,K,"6 h, tissue Plasma",4.7 meq/L
same,LDH,"6 h, tissue Plasma",98.4 IU/L
same,Na,"6 h, tissue Plasma",141.6 meq/L
same,PL,"6 h, tissue Plasma",137.8 mg/dL
same,RALB,"6 h, tissue Plasma",3.3 g/dL
same,TBIL,"6 h, tissue Plasma",0.4 mg/dL
same,TC,"6 h, tissue Plasma",78 mg/dL
same,TG,"6 h, tissue Plasma",40.2 mg/dL
same,TP,"6 h, tissue Plasma",5.3 g/dL
